Publication PMC11094368, “Modulating mycobacterial envelope integrity for antibiotic synergy with benzothiazoles” (Life Science Alliance, 2024)

Legend:
Assay in all cases: microbe, parasite or virus in culture
Bacillus subtilis 168 = tested on: T1, Bacillus subtilis 168; parameters: species or system E. coli, B. subtilis, K. pneumoniae, A. baumannii; bacterial growth inhibition in LB, twofold dilutions, OD600 tracking; conditions: Bacillus subtilis, 168, read-out: MIC50
T1 construct: 168

[1] = tested on: T2, Klebsiella pneumoniae LMG20218; parameters: species or system E. coli, B. subtilis, K. pneumoniae, A. baumannii; bacterial growth inhibition in LB, twofold dilutions, OD600 tracking; conditions: Klebsiella pneumoniae, LMG20218, read-out: MIC50
T2 construct: LMG20218

[2] = tested on: T3, Acinetobacter baumannii 1757; parameters: species or system E. coli, B. subtilis, K. pneumoniae, A. baumannii; bacterial growth inhibition in LB, twofold dilutions, OD600 tracking; conditions: Acinetobacter baumannii, 1757, read-out: MIC50
T3 construct: 1757

[3] = tested on: T4, Acinetobacter baumannii LMG01041; parameters: species or system E. coli, B. subtilis, K. pneumoniae, A. baumannii; bacterial growth inhibition in LB, twofold dilutions, OD600 tracking; conditions: Acinetobacter baumannii, LMG01041, read-out: MIC50
T4 construct: LMG01041

Escherichia coli K12 = tested on: T5, Escherichia coli K12; parameters: species or system E. coli, B. subtilis, K. pneumoniae, A. baumannii; bacterial growth inhibition in LB, twofold dilutions, OD600 tracking; conditions: Escherichia coli, K12, read-out: MIC50
T5 construct: K12

[4] = tested on: T6, Mycobacterium abscessus 144C; parameters: resazurin microtiter plate assay (REMA), growth inhibition in 7H9 ADS glycerol tyloxapol; conditions: Mycobacteroides abscessus, 144C, 48 h, read-out: MIC50
T6 construct: 144C

[5] = tested on: T7, Mycobacterium abscessus RIVM; parameters: resazurin microtiter plate assay (REMA), growth inhibition in 7H9 ADS glycerol tyloxapol; conditions: Mycobacteroides abscessus, 48 h, read-out: MIC50
T7 construct: RIVM

[6] = tested on: T8, Mycobacterium smegmatis MC^2-155; parameters: resazurin microtiter plate assay (REMA), growth inhibition in 7H9 ADS glycerol tyloxapol; conditions: Mycolicibacterium smegmatis, 24 h, read-out: MIC50
T8 construct: MC2-155

M. marinum = tested on: T9, M. marinum; parameters: Resazurin microtiter plate assay (REMA), fluorescence; MIC90 growth inhibition in HdB medium with Tween-80, 30 °C; conditions: Mycobacterium marinum, 96 h; MIC90, HdB medium with Tween-80
T9 construct: M^USA (wild type)
Description: The resazurin microtiter plate assay (REMA) was used to determine minimal inhibitory concentrations (MIC) of the compound toward mycobacterial species ([Palomino et al, 2002]). Selected compounds or antibiotics were diluted in the bacterial growth medium as twofold serial dilutions in a 96-well plate. Bacteria were routinely grown until the mid-logarithmic phase, harvested by centrifugation (3,000g, 10 min), washed in PBS supplemented with 0.02% tyloxapol, resuspended in the growth medium, and added to the well plate containing compound dilutions, to achieve the final OD600 of 0.001 per well. […] When the color conversion of the dye was observed, the fluorescence was measured using a BioTek plate reader (Synergy H1), bottom reading mode, and excitation 560 nm/emission 590 nm. The MIC of compounds toward E. coli, Bacillus subtilis, K. pneumoniae, and A. baumannii was determined by tracking changes in the OD600. […] Plates were sealed and incubated at 37°C with 3 mm continuous linear shaking in a BioTek plate reader (Synergy H1), and the bacterial growth was tracked by measuring the OD600 every 15 min. […] Thus, we evaluated compounds from the benzothiazole library for their in vitro activity using the HdB medium with Tween-80 by REMA (Table S6).

Row | SMILES | IC50 (Bacillus subtilis 168) | IC50 [1] | IC50 [2] | IC50 [3] | IC50 (Escherichia coli K12) | IC50 [4] | IC50 [5] | IC50 [6] | MIC90 (M. marinum)
1 | CCOc1ccc2nc(N(Cc3ccccc3)C(C)=O)sc2c1 [BT-08, N-Benzyl-N-(6-ethoxybenzo[d]thiazol-2-yl)acetamide] | > 40 µM | > 40 µM | > 40 µM | > 40 µM | > 40 µM | > 40 µM | > 40 µM | – | –
2 | CCOc1ccc2nc(N(Cc3ccccc3OC)C(C)=O)sc2c1 [BT-37] | > 40 µM | > 40 µM | > 40 µM | > 40 µM | > 40 µM | > 40 µM | > 40 µM | > 40 µM | 0.3 µM
